The values below come from ChEMBL document CHEMBL2150853 (Eur J Med Chem, 2011).

Molecules are shown by their SMILES.

System in the first data set: not listed separately
Description: Antiprion activity against mouse prion protein RML infected mouse ScN2a cells assessed as reduction of PrPSc level by Western blot method.
Details: not given
Type of data set: cell-based. (In western blotting, separated proteins are transferred to a membrane and probed.)
As to `Clc1ccc2c(NC3CCN(Cc4ccccc4)CC3)c3c(nc2c1)CCCC3`, the EC50 – broadly, the midpoint of the concentration-response curve – is 540 nM.

Take `COc1ccc2nc3cc(Cl)ccc3c(NCC#CCN3CCN(C)CC3)c2c1`: the EC50 stood at 27 nM.

Consider `COc1ccc2nc3cc(Cl)ccc3c(NC3CCN(CCc4ccc(C)cc4)CC3)c2c1`, for which the EC50 was found to be 76 nM.

With `COc1ccc2nc3cc(Cl)ccc3c(NC3CCN(Cc4ccc(C)cc4)CC3)c2c1`, the concentration for a half-maximal effect (EC50) was determined as 150 nM.

For `Clc1ccc2c(NC3CCN(Cc4ccccc4)CC3)ccnc2c1`, the EC50 turned out to be 150 nM.

For the compound `COc1ccc2nc3cc(Cl)ccc3c(Nc3ccc(CN4CCCCC4)cc3)c2c1`, the half-maximal effective concentration (EC50) turned out to be 99 nM.

Another data set relates to ScN2a. Description: Antiprion activity against mouse prion protein RML infected mouse ScN2a cells assessed as drug level required for more than 99 percent reduction of PrPSc level by Western blot method. Type of data set: cell-based.
Details: not given
Consider `Clc1ccc2c(NC3CCN(Cc4ccccc4)CC3)c3c(nc2c1)CCCC3`, for which the Activity was 1 µM.

In the case of `COc1ccc2nc3cc(Cl)ccc3c(NCC#CCN3CCN(C)CC3)c2c1`, the Activity was found to be 1 µM.

Take `COc1ccc2nc3cc(Cl)ccc3c(NC3CCN(CCc4ccc(C)cc4)CC3)c2c1`: the Activity came out at 1 µM.

For the compound `COc1ccc2nc3cc(Cl)ccc3c(NC3CCN(Cc4ccc(C)cc4)CC3)c2c1`, the Activity stood at 3 µM.

For `Clc1ccc2c(NC3CCN(Cc4ccccc4)CC3)ccnc2c1`, the Activity is 1 µM.

On to `COc1ccc2nc3cc(Cl)ccc3c(Nc3ccc(CN4CCCCC4)cc3)c2c1`, for which the Activity was 0.5 µM.

System in the next data set: not listed separately
Description: Antiprion activity against mouse prion protein 22L infected mouse N167 cells assessed as reduction of PrPSc level by Western blot method. Type of data set: cell-based.
Details: not given
As for `Clc1ccc2c(NC3CCN(Cc4ccccc4)CC3)c3c(nc2c1)CCCC3`, the EC50 worked out at 420 nM.

Consider `COc1ccc2nc3cc(Cl)ccc3c(NCC#CCN3CCN(C)CC3)c2c1`, for which the half-maximal effective concentration (EC50) came out at 990 nM.

On to `COc1ccc2nc3cc(Cl)ccc3c(NC3CCN(CCc4ccc(C)cc4)CC3)c2c1`, for which the EC50 was determined as 300 nM.

On to `COc1ccc2nc3cc(Cl)ccc3c(NC3CCN(Cc4ccc(C)cc4)CC3)c2c1`, for which the EC50 was found to be 620 nM.

As for `Clc1ccc2c(NC3CCN(Cc4ccccc4)CC3)ccnc2c1`, the EC50 came out at 230 nM.

As for `COc1ccc2nc3cc(Cl)ccc3c(Nc3ccc(CN4CCCCC4)cc3)c2c1`, the EC50 was determined as 510 nM.

A further data set deals with N167. Description: Antiprion activity against mouse prion protein 22L infected mouse N167 cells assessed as drug level required for more than 99 percent reduction of PrPSc level by Western blot method. It counts as cell-based.
Details: not given
Turning to `Clc1ccc2c(NC3CCN(Cc4ccccc4)CC3)c3c(nc2c1)CCCC3`, the Activity turned out to be 3 µM.

For `COc1ccc2nc3cc(Cl)ccc3c(NCC#CCN3CCN(C)CC3)c2c1`, the Activity is 3 µM.

Turning to `COc1ccc2nc3cc(Cl)ccc3c(NC3CCN(CCc4ccc(C)cc4)CC3)c2c1`, the Activity was determined as 1 µM.

Take `COc1ccc2nc3cc(Cl)ccc3c(NC3CCN(Cc4ccc(C)cc4)CC3)c2c1`: the Activity came to 1 µM.

Consider `Clc1ccc2c(NC3CCN(Cc4ccccc4)CC3)ccnc2c1`, for which the Activity turned out to be 2 µM.

`COc1ccc2nc3cc(Cl)ccc3c(Nc3ccc(CN4CCCCC4)cc3)c2c1`: the Activity worked out at 1 µM.

System in the next data set: not listed separately
Description: Antiprion activity against human prion protein Fukuoka-1 infected mouse F3 cells assessed as reduction of PrPSc level by Western blot method. It counts as cell-based. Particulars: N2a #58 F3.
Take `Clc1ccc2c(NC3CCN(Cc4ccccc4)CC3)c3c(nc2c1)CCCC3`: the concentration giving a half-maximal response (EC50) came to 1190 nM.

With `COc1ccc2nc3cc(Cl)ccc3c(NC3CCN(CCc4ccc(C)cc4)CC3)c2c1`, the EC50 turned out to be 690 nM.

Regarding `COc1ccc2nc3cc(Cl)ccc3c(NC3CCN(Cc4ccc(C)cc4)CC3)c2c1`, the concentration for a half-maximal effect (EC50) worked out at 630 nM.

On to `Clc1ccc2c(NC3CCN(Cc4ccccc4)CC3)ccnc2c1`, for which the concentration giving a half-maximal response (EC50) came out at 1200 nM.

Regarding `COc1ccc2nc3cc(Cl)ccc3c(Nc3ccc(CN4CCCCC4)cc3)c2c1`, the concentration giving a half-maximal response (EC50) is 640 nM.

A further data set deals with N2a #58 F3. In words: Antiprion activity against human prion protein Fukuoka-1 infected mouse F3 cells assessed as drug level required for more than 99 percent reduction of PrPSc level by Western blot method. Type of data set: cell-based.
Details: not given
Consider `Clc1ccc2c(NC3CCN(Cc4ccccc4)CC3)c3c(nc2c1)CCCC3`, for which the Activity was found to be 5 µM.

In the case of `COc1ccc2nc3cc(Cl)ccc3c(NC3CCN(CCc4ccc(C)cc4)CC3)c2c1`, the Activity was 3 µM.

As for `COc1ccc2nc3cc(Cl)ccc3c(NC3CCN(Cc4ccc(C)cc4)CC3)c2c1`, the Activity turned out to be 3 µM.

`Clc1ccc2c(NC3CCN(Cc4ccccc4)CC3)ccnc2c1`: the Activity came out at 3 µM.

On to `COc1ccc2nc3cc(Cl)ccc3c(Nc3ccc(CN4CCCCC4)cc3)c2c1`, for which the Activity came out at 3 µM.

System in a further data set: not listed separately
In words: Cytotoxicity against mouse N2A cells assessed as maximal tolerant concentration. Conditions: read-out: MTD. It counts as cell-based.
In the case of `Clc1ccc2c(NC3CCN(Cc4ccccc4)CC3)c3c(nc2c1)CCCC3`, the MNTC worked out at 5 µM.

With `COc1ccc2nc3cc(Cl)ccc3c(NCC#CCN3CCN(C)CC3)c2c1`, the MNTC was 8 µM.

Consider `COc1ccc2nc3cc(Cl)ccc3c(NC3CCN(CCc4ccc(C)cc4)CC3)c2c1`, for which the MNTC is 3 µM.

Regarding `COc1ccc2nc3cc(Cl)ccc3c(NC3CCN(Cc4ccc(C)cc4)CC3)c2c1`, the MNTC came to 5 µM.

In the case of `Clc1ccc2c(NC3CCN(Cc4ccccc4)CC3)ccnc2c1`, the MNTC is over 10 µM.

As to `COc1ccc2nc3cc(Cl)ccc3c(Nc3ccc(CN4CCCCC4)cc3)c2c1`, the MNTC worked out at 5 µM.

The target of another data set is Major prion protein (Homo sapiens) (UniProt P04156). Description: Binding affinity to truncated human PrP 121-231 at 50 uM by surface plasmon resonance method.
Details: not given
(In general: SPR reads the build-up and loss of mass on a sensor chip optically.)
`Clc1ccc2c(NC3CCN(Cc4ccccc4)CC3)c3c(nc2c1)CCCC3`: the RUmax was determined as 138%.

`COc1ccc2nc3cc(Cl)ccc3c(NC3CCN(CCc4ccc(C)cc4)CC3)c2c1` had an RUmax of 148%.

With `COc1ccc2nc3cc(Cl)ccc3c(NC3CCN(Cc4ccc(C)cc4)CC3)c2c1`, the RUmax came out at 69.8%.

Compound `Clc1ccc2c(NC3CCN(Cc4ccccc4)CC3)ccnc2c1` gave an RUmax of 114%.

As to `COc1ccc2nc3cc(Cl)ccc3c(Nc3ccc(CN4CCCCC4)cc3)c2c1`, the RUmax turned out to be 144%.

System in the next data set: not listed separately
Description: Effective permeability of the compound at pH 7.4 at 30 to 50 uM by PAMPA assay. It counts as ADME. Particulars: read-out: Peff. Background: The PAMPA barrier holds no transporters, so it reflects passive diffusion.
On to `COc1ccc2nc3cc(Cl)ccc3c(NCC#CCN3CCN(C)CC3)c2c1`, for which the Papp at up to 50 µM was determined as 11.5 ×10⁻⁶ cm/s.

Turning to `COc1ccc2nc3cc(Cl)ccc3c(NC3CCN(CCc4ccc(C)cc4)CC3)c2c1`, the Papp at up to 50 µM stood at 7.39 ×10⁻⁶ cm/s.

Turning to `COc1ccc2nc3cc(Cl)ccc3c(Nc3ccc(CN4CCCCC4)cc3)c2c1`, the Papp at up to 50 µM turned out to be 5.28 ×10⁻⁶ cm/s.

System in another data set: not listed separately
Description: Solubility of the compound in phosphate buffer at 50 uM.
Details: not given
It counts as physicochemical.
Turning to `COc1ccc2nc3cc(Cl)ccc3c(NCC#CCN3CCN(C)CC3)c2c1`, the solubility entry is listed as “Insoluble”.
